Test results taken from patent US8143296B2, “Thiazole-based compound and inhibitor of T-type calcium channel containing the same” (Korea Institute of Science and Technology, priority 2006, dated 2012).

Columns and labels:
[1] = molecular target: T1, α1G T-type calcium channel (Homo sapiens, UniProt O43497); test: T-type calcium channel activity in HEK293 cells by electrophysiological whole cell patch clamp method; format: cell-based; conditions: HEK293 cells expressing α1G
T1 construct: host or cells: HEK293
T1 sequence (O43497 whole entry): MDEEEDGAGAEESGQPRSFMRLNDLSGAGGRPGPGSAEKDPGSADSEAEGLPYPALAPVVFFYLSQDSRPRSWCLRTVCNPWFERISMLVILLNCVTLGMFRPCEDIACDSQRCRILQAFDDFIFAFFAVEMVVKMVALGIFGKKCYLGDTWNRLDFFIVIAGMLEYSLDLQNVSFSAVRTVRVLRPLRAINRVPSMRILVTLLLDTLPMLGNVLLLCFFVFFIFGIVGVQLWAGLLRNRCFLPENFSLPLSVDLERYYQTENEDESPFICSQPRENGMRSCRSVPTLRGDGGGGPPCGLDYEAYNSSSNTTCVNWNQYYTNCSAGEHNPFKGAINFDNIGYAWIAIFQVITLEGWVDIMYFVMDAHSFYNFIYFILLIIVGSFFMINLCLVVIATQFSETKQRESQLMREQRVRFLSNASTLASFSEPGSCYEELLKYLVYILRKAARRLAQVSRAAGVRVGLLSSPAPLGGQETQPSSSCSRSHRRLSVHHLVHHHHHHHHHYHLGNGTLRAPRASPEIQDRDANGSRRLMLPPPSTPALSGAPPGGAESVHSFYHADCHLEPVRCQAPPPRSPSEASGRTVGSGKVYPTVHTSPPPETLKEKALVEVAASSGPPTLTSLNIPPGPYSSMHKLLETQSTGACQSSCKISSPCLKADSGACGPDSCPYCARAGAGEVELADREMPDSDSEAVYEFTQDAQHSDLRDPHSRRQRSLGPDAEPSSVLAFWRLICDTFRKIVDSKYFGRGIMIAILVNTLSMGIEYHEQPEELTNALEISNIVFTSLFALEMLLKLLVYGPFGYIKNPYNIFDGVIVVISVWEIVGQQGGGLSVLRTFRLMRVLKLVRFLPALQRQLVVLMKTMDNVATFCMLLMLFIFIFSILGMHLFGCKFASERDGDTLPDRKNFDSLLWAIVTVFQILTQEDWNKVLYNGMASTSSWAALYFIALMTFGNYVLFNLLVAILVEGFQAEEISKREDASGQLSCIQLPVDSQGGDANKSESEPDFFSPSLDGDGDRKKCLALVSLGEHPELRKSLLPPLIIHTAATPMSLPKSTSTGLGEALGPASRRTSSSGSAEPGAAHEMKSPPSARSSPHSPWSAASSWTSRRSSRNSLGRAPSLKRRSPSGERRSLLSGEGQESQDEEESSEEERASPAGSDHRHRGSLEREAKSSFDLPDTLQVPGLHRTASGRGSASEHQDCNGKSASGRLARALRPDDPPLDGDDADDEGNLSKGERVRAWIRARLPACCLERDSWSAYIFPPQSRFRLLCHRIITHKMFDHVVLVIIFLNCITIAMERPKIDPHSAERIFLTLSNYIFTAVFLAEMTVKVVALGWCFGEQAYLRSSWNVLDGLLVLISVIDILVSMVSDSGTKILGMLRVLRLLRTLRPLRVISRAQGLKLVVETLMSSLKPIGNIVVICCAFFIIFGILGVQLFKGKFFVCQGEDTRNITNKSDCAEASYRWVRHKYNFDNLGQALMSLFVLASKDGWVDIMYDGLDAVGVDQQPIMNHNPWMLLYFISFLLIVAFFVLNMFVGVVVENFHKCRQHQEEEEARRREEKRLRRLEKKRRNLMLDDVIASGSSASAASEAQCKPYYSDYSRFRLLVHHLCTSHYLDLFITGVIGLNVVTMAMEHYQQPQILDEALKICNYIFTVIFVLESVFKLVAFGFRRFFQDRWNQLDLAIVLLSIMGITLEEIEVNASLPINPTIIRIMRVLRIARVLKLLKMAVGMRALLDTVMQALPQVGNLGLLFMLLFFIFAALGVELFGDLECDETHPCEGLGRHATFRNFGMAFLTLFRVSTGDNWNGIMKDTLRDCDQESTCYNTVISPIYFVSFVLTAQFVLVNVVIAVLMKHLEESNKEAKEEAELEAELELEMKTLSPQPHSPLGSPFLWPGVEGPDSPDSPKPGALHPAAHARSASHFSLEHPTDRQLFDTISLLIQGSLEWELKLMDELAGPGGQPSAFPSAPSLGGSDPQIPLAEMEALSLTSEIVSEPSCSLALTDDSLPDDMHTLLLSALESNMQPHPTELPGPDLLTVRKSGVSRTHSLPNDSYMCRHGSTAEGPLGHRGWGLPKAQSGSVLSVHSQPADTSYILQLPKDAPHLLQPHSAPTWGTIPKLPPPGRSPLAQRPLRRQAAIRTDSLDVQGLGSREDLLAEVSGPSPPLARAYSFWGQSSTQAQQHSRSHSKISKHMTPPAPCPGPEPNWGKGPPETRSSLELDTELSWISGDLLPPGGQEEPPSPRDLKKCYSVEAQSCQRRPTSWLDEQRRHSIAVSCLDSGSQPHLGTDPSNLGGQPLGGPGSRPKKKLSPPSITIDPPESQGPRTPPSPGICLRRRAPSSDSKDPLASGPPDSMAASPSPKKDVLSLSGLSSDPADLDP
Description: The selected compounds were used in a second assay for T-type calcium channel inhibiting activity using electrophysiological whole cell patch clamp method, wherein mammal HEK293 cell lines (originated from human kidney carcinoma cells) which specifically expresses α1G of T-type calcium channel was used for the second assay. […] 10% Fetal bovine serum (FBS) and 1% penicillin/streptomycin (v/v) were added to Dulbecco's modified Eagle's medium (DMEM), to be used as a media solution. The cells were cultured in incubator under the wet condition of 95% air/5% CO2 and temperature of 36.5° C. The media solution was refreshed every 3 or 4 days, and the cells were sub-cultured every week. Only the cells which express α1G T-type calcium channel were cultured using G-418 (0.5 mg/ml) solution. The recording to the cells used in the T-type calcium channel activity analysis was conducted at 2-7 days after the cells were culturing on a cover slip coated with poly-L-lysine (0.5 mg/ml) when conducting every sub-culture. For analysis at a single cell level, the T-type calcium channel current was measured by an electrophysiological whole cell patch clamp method using EPC-9 amplifier (HEKA, German). […] Thereafter, the cell membrane potential was fixed to −100 mV, and then the inward current due to the T-type calcium channel activity when […] to −30 mV (50 ms duration) was measured every 10 seconds. […]

[2] = molecular target: T1, α1G T-type calcium channel; test: Assay for % inhibiting activity against T-type calcium channel using FDSS6000; format: cell-based; conditions: HEK293 cells expressing α1G; for inhibition at 10 µM: HEK293, 10 μM; for % Inhibition [α1G, 10 μM) using FDSS6000: hydrochloride
Description: In the present invention, in order to search an efficient inhibitor against T-type calcium channel, a primary assay for T-type calcium channel inhibiting activity was conducted by a high-efficient assay using FDSS6000, wherein mammal HEK293 cell lines (originated from human kidney carcinoma cells) which specifically expresses α1G of T-type calcium channel was used for primary assay. Through the primary assay, compounds which show meaningful inhibition effects were selected. The selected compounds were used in a second assay for T-type calcium channel inhibiting activity using electrophysiological whole cell patch clamp method, wherein mammal HEK293 cell lines (originated from human kidney carcinoma cells) which specifically expresses α1G of T-type calcium channel was used for the second assay.
At 12-24 hours before being used for this assay, cells of HEK293 cell line (α1G cell line: KCTC 10519BP, Korean Collection for Type Cultures), which stably express α1G T-type calcium channel and Kir2.1, were sub-cultured in a poly-L-lysine treated 96-well plate with the density of 4×10^4 per a well using a 96-well cell dispenser (Titertek). On the of assay, the 96-well plate to which the cells were attached were washed three times with HEPES buffer solution (150 mM of NaCl, 5 mM of KCl, 1 mM of MgCl2, 2 mM of CaCl2, 10 mM of HEPES, 10 mM of glucose; pH 7.4) using a 96-well plate automatic washing device (Bio Tek), then reacted with HEPES buffer solution containing 5 μM fluo-3/AM and 0.001% Pluronic F-127 under room temperature for 1 hour, to label with fluorescent dye, and then further washed two times with HEPES buffer solution.
Thereafter, at 10 minutes before the measurement using device FDSS6000, a washing with HEPES buffer solution containing 10 mM CaCl2 was conducted once more, and the final volume was adjusted to 81 μl. Besides the above 96-well plate containing the cells, additional two drug 96-well plates were provided, wherein the 96-well plates contain inhibiting drug and KCl (final concentration: 75 mM) for activating T-type calcium channel, respectively. Since most of cell-based HTS devices are equipped with a liquid application system for injection of drug, but have no liquid sucking system, the inhibiting drug to be tested and KCl were respectively provided at the five-times higher concentration in 10 mM CaCl2 HEPES buffer solution at the amount of 27 μl, diluted five-times at the final cell plate volume of 135 μl, and then used in this test. The concrete method of measurement using FDSS6000 was as follows: After recording the reference value of 20 seconds, the change of intracellular Ca^2+ concentration which induced by treatment of the inhibiting drug to be tested for 75 seconds followed by administration of KCl was measured, wherein the percentage (%) inhibition effect of the test drug, through estimating the area of ratio value of 340/380 in the control without treatment of the test drug as 100%. As a reference drug, mibefradil was used.
For accurate calcium-imagination, the light source of 4 xenon lamps in FDSS6000 were radiated to make the cells exposed selectively to the excitation wavelength (340 nm and 380 nm) by computer-controlled filter wheel. Data was obtained at interval of each 1.23 second. The emitter fluorescence light inflowed through long-pass filter was obtained as an average 340/380 ratio value for each well in the 96-wells by using CCD camera and digital fluorescence analyzer in FDSS6000. All image data and analyses were obtained by using FDSS6000-exclusive program provide from Hamamatsu Photonics.

[3] = Table 4 (Chemical Formula 3 series)
[4] = Table 3 (Chemical Formula 2 series)

SMILES	IC50 [1] [nM]	melting point [°C]	inhibition at 10 µM [2, 3] [%]	inhibition at 10 µM [2, 4] [%]	% Inhibition [α1G, 10 μM) using FDSS6000 [2, 4] [%]
NC(N)=Nc1nc(CC(=O)Nc2cc(Cl)cc(Cl)c2)cs1	310 ± 220	–	–	–	–
Cl.NC(N)=Nc1nc(CC(=O)Nc2cc(Cl)cc(Cl)c2)cs1 [KHG23185, 2-(2-(diaminomethyleneamino)thiazole-4-yl)-N-(3,5-dichlorophenyl)acetamide hydrochloride]	–	248.5 to 249.2	–	12.3	–
COc1ccc(NC(=O)Cc2csc(N=C(N)N)n2)cc1F.Cl [KHG23179, 2-(2-(diaminomethyleneamino)thiazole-4-yl)-N-(3-fluoro-4-methoxyphenyl)acetamide hydrochloride]	–	225.8 to 228.4	–	–	30.76
Cl.NC(N)=Nc1nc(CC(=O)Nc2cc(Cl)ccc2F)cs1 [KHG23172, N-(5-chloro-2-fluorophenyl)-2-(2-(diaminomethyleneamino)thiazole-4-yl)acetamide hydrochloride]	–	209.3 to 210	–	27.6	–
Cc1ccc(NC(=O)Cc2csc(N=C(N)N)n2)c(Br)c1.Cl [KHG23191, N-(2-bromo-4-methylphenyl)-2-(2-(diaminomethyleneamino)thiazole-4-yl)acetamide hydrochloride]	–	219.7 to 220.5	–	18	–
Cl.NC(N)=Nc1nc(CC(=O)NCc2ccc(F)c(F)c2)cs1 [KHG23189, 2-(2-(diaminomethyleneamino)thiazole-4-yl)-N-(3,4-difluorobenzyl)acetamide hydrochloride]	–	206.9 to 207.6	–	19.3	–
Cc1ccc(NC(=O)Cc2csc(N=C(N)N)n2)cc1.Cl [KHG23175, 2-(2-(diaminomethyleneamino)thiazole-4-yl)-N-p-tolylacetamide hydrochloride]	–	236.2 to 238.3	–	23.8	–
Cc1ccc(CNC(=O)Cc2csc(N=C(N)N)n2)cc1.Cl [KHG23187, 2-(2-(diaminomethyleneamino)thiazole-4-yl)-N-(4-methylbenzyl)acetamide hydrochloride]	–	187.9 to 188.6	–	21.4	–
CCc1ccc(NC(=O)Cc2csc(N=C(N)N)n2)cc1.Cl [KHG23186, 2-(2-(diaminomethyleneamino)thiazole-4-yl)-N-(4-ethylphenyl)acetamide hydrochloride]	–	228 to 229.1	–	29.8	–
Cl.NC(N)=Nc1nc(CC(=O)Nc2ccc(Cl)cc2F)cs1 [KHG23173, N-(4-chloro-2-fluorophenyl)-2-(2-(diaminomethyleneamino)thiazole-4-yl)acetamide hydrochloride]	–	237.2 to 239.8	–	28.1	–
Cc1ccc(NC(=O)Cc2csc(N=C(N)N)n2)cc1Cl.Cl [KHG23170, N-(3-chloro-4-methylphenyl)-2-(2-(diaminomethyleneamino)thiazole-4-yl)acetamide hydrochloride]	–	238.6 to 240.4	–	–	30.68

The remaining lines, values ahead:

IC50 [1] [nM]	melting point [°C]	inhibition at 10 µM [2, 3] [%]	inhibition at 10 µM [2, 4] [%]	% Inhibition [α1G, 10 μM) using FDSS6000 [2, 4] [%]	SMILES
–	209.5	19.6	–	–	Br.NC(N)=Nc1nc(-c2ccccc2)cs1 [KHG24380, 2-(4-phenylthiazole-2-yl)guanidine hydrobromide]
–	245.4	20.7	–	–	Br.COc1ccccc1-c1csc(N=C(N)N)n1 [KHG24374, 2-(4-(2-methoxyphenyl)thiazole-2-yl)guanidine hydrobromide]
–	278.5	20.8	–	–	Br.NC(N)=Nc1nc(-c2ccc(Br)cc2)cs1 [KHG24381, 2-(4-(4-bromophenyl)thiazole-2-yl)guanidine hydrobromide]
–	248.9	19.8	–	–	Cl.NC(N)=Nc1nc(-c2ccc(F)cc2F)cs1 [KHG24026, 2-(4-(2,4-difluorophenyl)thiazole-2-yl)guanidine hydrochloride]
–	224.8	15.8	–	–	Br.NC(N)=Nc1nc(-c2cccc(C(F)(F)F)c2)cs1 [KHG24385, 2-(4-(3-(trifluoromethyl)phenyl)thiazole-2-yl)guanidine hydrobromide]
–	242.1 to 242.6	–	16.8	–	CCOc1ccc(NC(=O)Cc2csc(N=C(N)N)n2)cc1.Cl [KHG23192, N-(4-ethoxyphenyl)-2-(2-(diaminomethyleneamino)thiazole-4-yl)acetamide hydrochloride]
780 ± 80	–	–	–	–	NC(N)=Nc1nc(CC(=O)Nc2cc(C(F)(F)F)cc(C(F)(F)F)c2)cs1 [drawing 11]
–	202.6	20.2	–	–	Br.COc1ccc(-c2csc(N=C(N)N)n2)c(F)c1 [KHG24377, 2-(4-(2-fluoro-4-methoxyphenyl)thiazole-2-yl)guanidine hydrobromide]
–	173	16.8	–	–	Br.NC(N)=Nc1nc(-c2ccc(Cl)cc2Cl)cs1 [KHG24379, 2-(4-(2,4-dichlorophenyl)thiazole-2-yl)guanidine hydrobromide]
